Target: PD-1/PD-L1 (Homo sapiens, UniProt Q9NZQ7)
Assay: TR-FRET PD-1/PD-L1 binding inhibition at the molecular level (free proteins)
Details: Tag1-PD-L1 and Tag2-PD-1 proteins, twelve concentrations from 200 nM, 2 hours at room temperature, read-out: FRET assay (IC50)
How it was run: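 HTRF read-out at 665/620 nm after 2 h at room temperature. Detection used anti-Tag1 Eu cryptate plus anti-Tag2 XL665 antibodies. Tagged PD-L1 and PD-1 proteins were pre-mixed with compound across twelve […] 1:2 dilutions starting at 200 nM.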

Sequence of PD-1/PD-L1 (Q9NZQ7 19-238 limits assumed): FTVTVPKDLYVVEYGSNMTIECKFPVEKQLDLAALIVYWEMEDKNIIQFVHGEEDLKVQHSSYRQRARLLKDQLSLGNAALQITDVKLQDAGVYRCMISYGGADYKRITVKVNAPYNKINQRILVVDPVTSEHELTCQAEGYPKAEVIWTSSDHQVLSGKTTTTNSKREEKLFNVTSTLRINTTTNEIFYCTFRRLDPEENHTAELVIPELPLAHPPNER

Compound	IC50 [nM]
Cc1c(NC(=O)c2cc3n(n2)CCC[C@@H]3N2CCC(O)CC2)cccc1-c1cccc(Nc2nc(C(F)F)nc3cccnc23)c1C [Compound 287, (S)-N-(3'-((2-(difluoromethyl)pyrido[3,2-d]pyrimidin-4-yl)amino)-2,2'-dimethyl-[1,1'-biphenyl]-3-yl)-4-(4-hydroxypiperidin-1-yl)-4,5,6,7-tetrahydropyrazolo[1,5-a]pyridine-2-carboxamide]	10 to 100
Cc1c(NC(=O)c2cc3n(n2)CCC[C@H]3N2CCC(O)CC2)cccc1-c1cccc(Nc2nc(C(F)F)nc3cccnc23)c1C [Compound 288, (R)-N-(3'-((2-(difluoromethyl)pyrido[3,2-d]pyrimidin-4-yl)amino)-2,2'-dimethyl-[1,1'-biphenyl]-3-yl)-4-(4-hydroxypiperidin-1-yl)-4,5,6,7-tetrahydropyrazolo[1,5-a]pyridine-2-carboxamide]	10 to 100
O=C(Nc1cccc(-c2cccc(Nc3nc(C(F)F)nc4cccnc34)c2Cl)c1Cl)c1cc2n(n1)CCC[C@@H]2N1CCC(C(=O)O)CC1 [Compound 289, (S)-1-(2-((2,2'-dichloro-3'-((2-(difluoromethyl)pyrido[3,2-d]pyrimidin-4-yl)amino)-[1,1'-biphenyl]-3-yl)carbamoyl)-4,5,6,7-tetrahydropyrazolo[1,5-a]pyridin-4-yl)piperidine-4-carboxylic acid]	< 10
Cc1c(NC(=O)c2cc3n(n2)CCC[C@@H]3N2CCC(C(=O)O)CC2)cccc1-c1cccc(Nc2nc(C(F)F)nc3cccnc23)c1C [Compound 291, (S)-1-(2-((3'-((2-(difluoromethyl)pyrido[3,2-d]pyrimidin-4-yl)amino)-2,2'-dimethyl-[1,1'-biphenyl]-3-yl)carbamoyl)-4,5,6,7-tetrahydropyrazolo[1,5-a]pyridin-4-yl)piperidine-4-carboxylic acid]	10 to 100
Cc1c(NC(=O)c2cc3n(n2)CCC[C@H]3N2CCC(C(=O)O)CC2)cccc1-c1cccc(Nc2nc(C(F)F)nc3cccnc23)c1C [Compound 292, (R)-1-(2-((3'-((2-(difluoromethyl)pyrido[3,2-d]pyrimidin-4-yl)amino)-2,2'-dimethyl-[1,1'-biphenyl]-3-yl)carbamoyl)-4,5,6,7-tetrahydropyrazolo[1,5-a]pyridin-4-yl)piperidine-4-carboxylic acid]	< 10
O=C(O)CN[C@H]1CCCn2nc(C(=O)Nc3cccc(-c4cccc(Nc5nc(C(F)F)nc6cc(CN7CC[C@@H](O)C7)cnc56)c4Cl)c3Cl)cc21 [Compound 293, 2-(((S)-2-((2,2'-dichloro-3'-((2-(difluoromethyl)-7-(((R)-3-hydroxypyrrolidin-1-yl)methyl)pyrido[3,2-d]pyrimidin-4-yl)amino)-[1,1'-biphenyl]-3-yl)carbamoyl)-4,5,6,7-tetrahydropyrazolo[1,5-a]pyridin-4-yl)amino)acetic acid]	10 to 100
O=C(Nc1cccc(-c2cccc(Nc3nc(C(F)F)nc4cc(CN5CC[C@@H](O)C5)cnc34)c2Cl)c1Cl)c1cc2n(n1)CCC[C@@H]2N1CCC(O)CC1 [Compound 295, (S)-N-(2,2'-dichloro-3'-((2-(difluoromethyl)-7-(((R)-3-hydroxypyrrolidin-1-yl)methyl)pyrido[3,2-d]pyrimidin-4-yl)amino)-[1,1'-biphenyl]-3-yl)-4-(4-hydroxypiperidin-1-yl)-4,5,6,7-tetrahydropyrazolo[1,5-a]pyridine-2-carboxamide]	10 to 100
O=C(Nc1cccc(-c2cccc(Nc3nc(C(F)F)nc4cc(CN5CC[C@@H](O)C5)cnc34)c2Cl)c1Cl)c1cc2n(n1)CCC[C@H]2N1CCC(O)CC1 [Compound 296, (R)-N-(2,2'-dichloro-3'-((2-(difluoromethyl)-7-(((R)-3-hydroxypyrrolidin-1-yl)methyl)pyrido[3,2-d]pyrimidin-4-yl)amino)-[1,1'-biphenyl]-3-yl)-4-(4-hydroxypiperidin-1-yl)-4,5,6,7-tetrahydropyrazolo[1,5-a]pyridine-2-carboxamide]	10 to 100
CC(C)c1nc(Nc2cccc(-c3cccc(NC(=O)c4cc5n(n4)CCC[C@@H]5N4CCC(C(=O)O)CC4)c3Cl)c2Cl)c2ncccc2n1 [Compound 297, (S)-1-(2-((2,2'-dichloro-3'-((2-isopropylpyrido[3,2-d]pyrimidin-4-yl)amino)-[1,1'-biphenyl]-3-yl)carbamoyl)-4,5,6,7-tetrahydropyrazolo[1,5-a]pyridin-4-yl)piperidine-4-carboxylic acid]	100 to 1000
CC(C)c1nc(Nc2cccc(-c3cccc(NC(=O)c4cc5n(n4)CCC[C@@H]5NC(C)(C)C(=O)O)c3Cl)c2Cl)c2ncccc2n1 [Compound 299, (S)-2-((2-((2,2'-dichloro-3'-((2-isopropyl-pyrido[3,2-d]pyrimidin-4-yl)amino)-[1,1'-biphenyl]-3-yl)carbamoyl)-4,5,6,7-tetrahydropyrazolo[1,5-a]pyridin-4-yl)amino)-2-methylpropanoic acid]	10 to 100
Cc1c(NC(=O)c2ccc(CN3CC[C@@H](O)C3)cn2)cccc1-c1cccc(NC(=O)c2cc3n(n2)CCC[C@H]3N2CCC[C@@H]2CO)c1C [Compound 310-1]	< 10

Other lines, results leading:

IC50 [nM]	Compound
100 to 1000	CC(C)c1nc(Nc2cccc(-c3cccc(NC(=O)c4cc5n(n4)CCC[C@@H]5N4CC(C(=O)O)C4)c3Cl)c2Cl)c2ncccc2n1 [Compound 301, (S)-1-(2-((2,2'-dichloro-3'-((2-isopropyl-pyrido[3,2-d]pyrimidin-4-yl)amino)-[1,1'-biphenyl]-3-yl)carbamoyl)-4,5,6,7-tetrahydropyrazolo[1,5-a]pyridin-4-yl)azetidine-3-carboxylic acid]
10 to 100	CC(C)c1nc(Nc2cccc(-c3cccc(NC(=O)c4cc5n(n4)CCC[C@H]5N4CC(C(=O)O)C4)c3Cl)c2Cl)c2ncccc2n1 [Compound 302, (R)-1-(2-((2,2'-dichloro-3'-((2-isopropyl-pyrido[3,2-d]pyrimidin-4-yl)amino)-[1,1'-biphenyl]-3-yl)carbamoyl)-4,5,6,7-tetrahydropyrazolo[1,5-a]pyridin-4-yl)azetidine-3-carboxylic acid]
10 to 100	O=C(Nc1cccc(-c2cccc(Nc3nc(C(F)(F)F)nc4cccnc34)c2Cl)c1Cl)c1cc2n(n1)CCC[C@@H]2N1CCC(O)CC1 [Compound 303, (S)-N-(2,2'-dichloro-3'-((2-(trifluoromethyl)pyrido[3,2-d]pyrimidin-4-yl)amino)-[1,1'-biphenyl]-3-yl)-4-(4-hydroxypiperidin-1-yl)-4,5,6,7-tetrahydropyrazolo[1,5-a]pyridine-2-carboxamide]
10 to 100	O=C(Nc1cccc(-c2cccc(Nc3nc(C(F)(F)F)nc4cccnc34)c2Cl)c1Cl)c1cc2n(n1)CCC[C@H]2N1CCC(O)CC1 [Compound 304, (R)-N-(2,2'-dichloro-3'-((2-(trifluoromethyl)pyrido[3,2-d]pyrimidin-4-yl)amino)-[1,1'-biphenyl]-3-yl)-4-(4-hydroxypiperidin-1-yl)-4,5,6,7-tetrahydropyrazolo[1,5-a]pyridine-2-carboxamide]
10 to 100	O=C(Nc1cccc(-c2cccc(Nc3nc(C(F)F)nc4cccnc34)c2Cl)c1Cl)c1cc2n(n1)CCC[C@@H]2N1CCC(O)CC1 [Compound 305, (S)-N-(2,2'-dichloro-3'-((2-(difluoromethyl)pyrido[3,2-d]pyrimidin-4-yl)amino)-[1,1'-biphenyl]-3-yl)-4-(4-hydroxypiperidin-1-yl)-4,5,6,7-tetrahydropyrazolo[1,5-a]pyridine-2-carboxamide]
< 10	Cn1c(C(=O)Nc2cccc(-c3cccc(NC(=O)c4cc5n(n4)CCC[C@@H]5N4CC[C@@H](C(=O)O)C4)c3Cl)c2Cl)nc2c1CCN(CCC13CCC(C(=O)O)(CC1)C3)C2 [Compound 307, (R)-1-((S)-2-((3'-(5-(2-(4-carboxybicyclo[2.2.1]heptan-1-yl)ethyl)-1-methyl-4,5,6,7-tetrahydro-1H-imidazo[4,5-c]pyridine-2-carboxamido)-2,2'-dichloro-[1,1'-biphenyl]-3-yl)carbamoyl)-4,5,6,7-tetrahydropyrazolo[1,5-a]pyridin-4-yl)pyrrolidine-3-carboxylic acid]
< 10	Cn1c(C(=O)Nc2cccc(-c3cccc(NC(=O)c4cc5n(n4)CCC[C@H]5N4CC[C@@H](C(=O)O)C4)c3Cl)c2Cl)nc2c1CCN(CCC13CCC(C(=O)O)(CC1)C3)C2 [Compound 308, (R)-1-((R)-2-((3'-(5-(2-(4-carboxybicyclo[2.2.1]heptan-1-yl)ethyl)-1-methyl-4,5,6,7-tetrahydro-1H-imidazo[4,5-c]pyridine-2-carboxamido)-2,2'-dichloro-[1,1'-biphenyl]-3-yl)carbamoyl)-4,5,6,7-tetrahydropyrazolo[1,5-a]pyridin-4-yl)pyrrolidine-3-carboxylic acid]
< 10	Cc1c(NC(=O)c2ccc(CN3CC[C@@H](O)C3)cn2)cccc1-c1cccc(NC(=O)c2cc3n(n2)CCC[C@@H]3N2CCCC[C@@H]2CO)c1C [Compound 309, (S)-4-((R)-2-(hydroxymethyl)piperidin-1-yl)-N-(3'-(5-(((R)-3-hydroxypyrrolidin-1-yl)methyl)picolinamido)-2,2'-dimethyl-[1,1'-biphenyl]-3-yl)-4,5,6,7-tetrahydropyrazolo[1,5-a]pyridine-2-carboxamide]
10 to 100	Cc1c(NC(=O)c2ccc(CN3CC[C@@H](O)C3)cn2)cccc1-c1cccc(NC(=O)c2cc3n(n2)CCC[C@H]3N2CCCC[C@@H]2CO)c1C [Compound 309-1, (R)-4-((R)-2-(hydroxymethyl)piperidin-1-yl)-N-(3'-(5-(((R)-3-hydroxypyrrolidin-1-yl)methyl)picolinamido)-2,2'-dimethyl-[1,1'-biphenyl]-3-yl)-4,5,6,7-tetrahydropyrazolo[1,5-a]pyridine-2-carboxamide]
< 10	Cc1c(NC(=O)c2ccc(CN3CC[C@@H](O)C3)cn2)cccc1-c1cccc(NC(=O)c2cc3n(n2)CCC[C@@H]3N2CCC[C@@H]2CO)c1C [Compound 310, (S)-4-((R)-2-(hydroxymethyl)pyrrolidin-1-yl)-N-(3'-(5-(((R)-3-hydroxypyrrolidin-1-yl)methyl)picolinamido)-2,2'-dimethyl-[1,1'-biphenyl]-3-yl)-4,5,6,7-tetrahydropyrazolo[1,5-a]pyridine-2-carboxamide]

— patent EP4755888A1 (ILAb Co., Ltd., priority 2023, dated 2025)
